Source: paper PMC12054212 (BMC Microbiology, 2025)

What was measured:
Metallo-L1 β-lactamase [1] = target: T1, Metallo-L1 β-lactamase (Stenotrophomonas maltophilia, UniProt B2FTM1); test: nitrocefin hydrolysis inhibition assay, absorbance at […] nm, […] enzyme; format: biochemical
Metallo-L1 β-lactamase [2] = target: T1, Metallo-L1 β-lactamase; test: nitrocefin hydrolysis inhibition assay, absorbance at […] nm, positive control; format: biochemical

T1 sequence (B2FTM1 22-290): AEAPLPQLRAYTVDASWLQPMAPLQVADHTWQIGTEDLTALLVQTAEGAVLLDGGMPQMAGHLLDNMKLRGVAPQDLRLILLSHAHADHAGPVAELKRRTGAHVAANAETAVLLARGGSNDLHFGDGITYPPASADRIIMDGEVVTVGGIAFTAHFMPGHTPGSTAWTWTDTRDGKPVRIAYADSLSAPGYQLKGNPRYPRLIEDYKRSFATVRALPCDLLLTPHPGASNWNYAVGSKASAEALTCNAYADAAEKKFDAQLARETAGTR

`Oc1c2ccccc2cc2cnc3ccccc3c12` [Benzo[j]phenanthridin-12-ol] gave an IC50 (Metallo-L1 β-lactamase [1]) of 23 µM.

`O=C(O)CN(CCN(CC(=O)O)CC(=O)O)CC(=O)O` [EDTA] was tested, and the IC50 (Metallo-L1 β-lactamase [2]) was 2.24 µM.
